According to patent publication EP1148124A1 (priority 1999, dated 2000):

System: aryl hydrocarbon receptor
Test: Reporter assay (No. 1), ligand responsive reporter gene (firefly luciferase, pGV-Ya-XREx5), clone of Example 2
Assay type: cell-based, mouse
Settings: about 40 hours; for Amount of luminescence by firefly luciferase (from pGV-Ya-XREx5) Ratio: ratio to 0 pg/ml
Description: Separately, plasmid pGV-Ya-XREx5 (ligand responsive reporter gene containing plasmid) constructed in Example 1 was digested with Bam HI. Further, plasmid pRL-TK (cell number reporter gene containing plasmid; marketed by Toyo Ink) containing the sea pansy luciferase gene used as the cell number reporter gene was digested with Bam HI, and neomycin resistance (aminoglycoside phosphotransferase) gene containing plasmid pRc/RSV (available from INVITROGEN) was digested with Hind III. These three digested plasmids, i.e., Bam HI digested pGV-Ya-XREx5 (2.8 µg), Bam HI digested pRL-TK (2.8 µg), and Hind III digested pRc/RSV (0.5 µg), were then mixed with 300 µl of αMEM medium (mixture A), while 36 µl of lipofectin (available from GIBCO-BRL) was mixed with 300 µl of αMEM medium (mixture B). After being left at room temperature for 30 minutes, mixtures A and B were combined together and left at room temperature for 10 minutes. The Hepa1clc7 cells cultured overnight as described above were then washed once with αMEM medium, to which there was added a solution prepared by adding and mixing additional 5.4 ml of αMEM medium to the above mixture (A + B). Culturing of the resulting mixture was carried out for 5 hours. The medium was then replaced with 10% serum containing αMEM medium, followed by further culturing overnight. Subsequently, the cells were scratched from the petri dishes and collected, and the collected cells were suspended in 10% serum containing αMEM medium to have the total volume of 100 ml. The resulting cell suspension was plated on 96 well plates at a ratio of 100 µl/well. After these plates were cultured overnight, a medium prepared by dissolving geneticin (hereinafter referred to as "G418") in 10% serum containing αMEM medium to have a concentration of 1.6 mg/ml was added at a ratio of 100 µl/well (G418 final concentration 800 µg/ml). Culturing was further continued for 3 weeks, during which the medium was replaced with 10% serum containing αMEM medium containing 800 µg/ml G418 at a rate of once per week. The volume of the medium was set at 200 µl/well. After said 3 weeks, cells were scratched from the wells in which colony formation had been observed, and collected (for 192 wells), and the collected cells were divided into three and independently plated on different plates, followed by continuous culturing for 4 days. To the first plate, only DMSO was added (solvent control), and to the second plate, 3-methylcholanthrene (hereinafter referred to as "3-MC") dissolved in DMSO was added so that the final concentration of 3-MC in the second plate came to 10 µM per well. The first and second plates were then cultured overnight. The third plate was further cultured as the master plate without any addition. From each well of each plate, to which DMSO or 3-MC had been added, the medium was removed, and the wells were washed twice with PBS(-) (sodium chloride, 8000 mg/l; potassium chloride, 200 mg/l; sodium monohydrogenphosphate (anhydrous), 1150 mg/l; […] dihydrogenphosphate (anhydrous), 200 mg/l; marketed by Nissui Pharmaceutical). A 5-fold diluted cell lysis buffer of PicaGene dual kit (marketed by Toyo Ink) was added to the wells in 15 µl/well, followed by leaving the plates at room temperature for 30 minutes or longer to cause cell lysis, to give cell extracts. These plates were set on a luminometer LB96P with an automatic enzyme substrate injector (available from Berthold), and PicaGene luminescence reagent II and sea pansy luminescence reagent (PicaGene dual kit, marketed by Toyo Ink) were automatically dispensed each in 50 µl, followed by continuous measurement for the amount of luminescence.
The clone screened in Example 2 was plated on 96-well plates at a ratio of 40,000 cells/well, followed by culturing overnight. […]

Clc1cc2c(cc1Cl)Oc1cc(Cl)c(Cl)cc1O2 [TCDD, 2,3,7,8-tetrachlorodibenzo-p-dioxin]
Amount of luminescence by firefly luciferase (from pGV-Ya-XREx5) Measured value (final conc. 0.02 pg/ml): 0.517 x 10^4 | Amount of luminescence by firefly luciferase (from pGV-Ya-XREx5) Ratio (final conc. 0.02 pg/ml): 1.1 | Amount of luminescence by firefly luciferase (from pGV-Ya-XREx5) Measured value (final conc. 0.2 pg/ml): 0.532 x 10^4 | Amount of luminescence by firefly luciferase (from pGV-Ya-XREx5) Ratio (final conc. 0.2 pg/ml): 1.1 | Amount of luminescence by firefly luciferase (from pGV-Ya-XREx5) Measured value (final conc. 2 pg/ml): 0.873 x 10^4 | Amount of luminescence by firefly luciferase (from pGV-Ya-XREx5) Ratio (final conc. 2 pg/ml): 1.8 | Amount of luminescence by firefly luciferase (from pGV-Ya-XREx5) Measured value (final conc. 20 pg/ml): 3.14 x 10^4 | Amount of luminescence by firefly luciferase (from pGV-Ya-XREx5) Ratio (final conc. 20 pg/ml): 6.5 | Amount of luminescence by firefly luciferase (from pGV-Ya-XREx5) Measured value (final conc. 200 pg/ml): 4.46 x 10^4 | Amount of luminescence by firefly luciferase (from pGV-Ya-XREx5) Ratio (final conc. 200 pg/ml): 9.2 | Amount of luminescence by firefly luciferase (from pGV-Ya-XREx5) Measured value (final conc. 2000 pg/ml): 4.17 x 10^4 | Amount of luminescence by firefly luciferase (from pGV-Ya-XREx5) Ratio (final conc. 2000 pg/ml): 8.6 | Amount of luminescence by firefly luciferase (from pGV-Ya-XREx5) Measured value (final conc. 20000 pg/ml): 4.49 x 10^4 | Amount of luminescence by firefly luciferase (from pGV-Ya-XREx5) Ratio (final conc. 20000 pg/ml): 9.2
